Reference: US20100063085A1, “METHOD OF TREATING LEARNING IMPAIRMENT IN DOWN'S SYNDROME SUBJECTS” (University Court of The University of Dundee, priority 2008, published 2010)
Where two headings read alike, the source gives them in different places.

Key:
Test in all cases: biochemical
Aurora B = Aurora B (Homo sapiens, UniProt Q96GD4); details: read-out: Aurora B activity as percentage of control without inhibitor
Procedure: (§1) All assays (25.5 μl) were carried out at room temperature (21° C.) and were linear with respect to time and enzyme concentrations under the conditions used. Assays were performed for 30 minutes except assays for LCK and PKB which were performed for 15 minutes using Multidrop Micro reagent dispensers (Thermo Electron Corporation, Waltham, Mass. 02454, USA) in a 96-well format. The concentration of […] [γ-^33P] ATP (800 cpm/pmol) in the assays was one of three concentrations (5, 20 or 50 μM) in order to be at or below Km for ATP for the enzyme. Assays were initiated with MgATP and stopped by addition of 5 μl of 0.5M orthophosphoric acid. Assays were then harvested onto P81 filterplates using a unifilter harvester (PerkinElmer, Boston, Mass. 02118, USA), with a wash buffer of 50 mM orthophosphoric acid. Filterplates were then air dried overnight. 10 μl of Microscint O was added per well prior to counting for radioactivity.
(§2) The following kinases were assayed against the substrates indicated. Aurora B was assayed against the substrate peptide […] (300 μM), ERK8 and MST-2 were both assayed against MBP (0.33 mg/ml). IKKβ was assayed against the substrate peptide […] (300 μM), JNK3 was assayed against 3 μM ATF2[19-96]. MAPKAP-K3 and PKD1 were both assayed against […] (30 μM), MARK3 was assayed against CHKtide ([…]) substrate peptide (300 μM). MNK1 and MNK2 were both assayed against eIF4E protein (0.5 mg/ml). NEK7 was assayed against […] (300 μM), PIM2 was assayed against […] (300 μM), ΔPH PKBβ-S474D was assayed against Crosstide (30 μM), PLK1 was assayed against […] (300 μM). PRK2 was assayed against Long S6 peptide, […] (30 μM), RSK2 was assayed against […] (30 μM), SRC was assayed against cdc2 peptide, […], (300 μM) and SRPK1 was assayed against peptide […] (300 μM). All enzymes were diluted in 50 mM Tris/HCl pH 7.5, 0.1 mM EGTA, 1 mg/ml BSA, 0.1% β-mercaptoethanol buffer and assayed in an incubation containing 50 mM Tris/HCl pH7.5, 0.1 mM EGTA, 0.1% β-mercaptoethanol, CAMK-1 (5-20 mU) diluted in 50 mM Tris/HCl pH 7.5, 0.1 mM EGTA, 1 mg/ml BSA, 0.1% β-mercaptoethanol is assayed against substrate peptide […] in an incubation containing 50 mM Tris/HCl pH 7.5, 0.1 mM EGTA, 0.5 mM CaCl2, 0.3 μM calmodulin, 0.1% β-mereaptoethanol, 300 μM substrate peptide, 10 mM magnesium acetate and 0.05 mM [^33P-γ-ATP] (500-1000 cpm/pmole). EF2K (5-20 mU) diluted in 50 mM Hepes pH 6.6, 0.1% β-mercaptoethanol, 1 mg/ml BSA is assayed against a substrate peptide […] in an incubation containing 50 mM Hepes pH 6.6, 0.2 mM CaCl2, 0.3 μM Calmodulin, 0.05% b-mercaptoethanol, 300 μM substrate peptide, 10 mM magnesium acetate and 0.05 mM [^33P-γ-ATP] (500-1000 cpm/pmole).

ERK8 = target: T1, ERK8 (Homo sapiens, UniProt Q8TD08); details: read-out: ERK8 activity as percentage of control without inhibitor
T1 sequence (Q8TD08 1-544): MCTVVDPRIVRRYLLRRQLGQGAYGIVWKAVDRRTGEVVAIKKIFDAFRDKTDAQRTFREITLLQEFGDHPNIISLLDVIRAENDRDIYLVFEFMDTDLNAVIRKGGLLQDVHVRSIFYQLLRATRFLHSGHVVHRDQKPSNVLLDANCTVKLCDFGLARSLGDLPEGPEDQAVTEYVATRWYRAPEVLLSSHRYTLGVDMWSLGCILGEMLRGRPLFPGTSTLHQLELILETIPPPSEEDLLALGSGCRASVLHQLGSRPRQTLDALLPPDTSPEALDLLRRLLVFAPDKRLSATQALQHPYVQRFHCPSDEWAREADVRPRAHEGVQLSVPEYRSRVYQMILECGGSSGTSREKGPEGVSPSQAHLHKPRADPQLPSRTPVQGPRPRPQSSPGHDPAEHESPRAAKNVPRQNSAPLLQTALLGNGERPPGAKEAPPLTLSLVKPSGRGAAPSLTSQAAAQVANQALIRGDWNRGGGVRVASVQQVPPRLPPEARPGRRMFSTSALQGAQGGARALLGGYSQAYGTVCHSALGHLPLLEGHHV
Procedure: as §1, §2

MST2 = target: T2, MST2 (Homo sapiens, UniProt Q13188); details: read-out: MST2 activity as percentage of control without inhibitor
T2 sequence (Q13188 1-491): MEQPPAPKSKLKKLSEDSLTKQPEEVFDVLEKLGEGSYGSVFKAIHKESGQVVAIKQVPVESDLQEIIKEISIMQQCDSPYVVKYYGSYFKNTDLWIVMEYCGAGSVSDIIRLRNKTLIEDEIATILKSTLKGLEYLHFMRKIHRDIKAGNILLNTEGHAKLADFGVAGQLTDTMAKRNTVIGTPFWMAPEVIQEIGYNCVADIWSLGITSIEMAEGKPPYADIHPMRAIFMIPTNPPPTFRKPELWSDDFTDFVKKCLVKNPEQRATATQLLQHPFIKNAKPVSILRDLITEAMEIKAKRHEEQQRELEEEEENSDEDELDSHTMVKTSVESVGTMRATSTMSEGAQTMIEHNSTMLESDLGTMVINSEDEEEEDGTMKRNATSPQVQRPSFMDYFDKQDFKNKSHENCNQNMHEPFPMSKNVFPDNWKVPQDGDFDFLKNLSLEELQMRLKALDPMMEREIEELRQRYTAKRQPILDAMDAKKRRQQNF
Procedure: as §1, §2

Sequence of Aurora B (Q96GD4 whole entry): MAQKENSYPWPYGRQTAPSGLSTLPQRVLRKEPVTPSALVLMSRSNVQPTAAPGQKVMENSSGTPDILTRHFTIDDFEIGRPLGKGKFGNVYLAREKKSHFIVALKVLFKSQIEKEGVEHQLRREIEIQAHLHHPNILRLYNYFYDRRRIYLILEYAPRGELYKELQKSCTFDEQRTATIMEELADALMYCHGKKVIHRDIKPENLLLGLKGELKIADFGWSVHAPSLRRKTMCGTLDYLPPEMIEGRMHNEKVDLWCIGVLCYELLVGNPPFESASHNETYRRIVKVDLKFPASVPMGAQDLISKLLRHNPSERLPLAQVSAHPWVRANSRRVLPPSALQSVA

SMILES | remaining activity at 1 µM (Aurora B) [%] | remaining activity at 10 µM (Aurora B) [%] | remaining activity at 1 µM (ERK8) [%] | remaining activity at 10 µM (ERK8) [%] | remaining activity at 1 µM (MST2) [%] | remaining activity at 10 µM (MST2) [%] | remaining activity at 1 µM (Aurora B; inhibitor 1 μM) [%] | remaining activity at 10 µM (Aurora B; inhibitor 10 μM) [%] | remaining activity at 1 µM (ERK8; inhibitor 1 μM) [%] | remaining activity at 10 µM (ERK8; inhibitor 10 μM) [%] | remaining activity at 1 µM (MST2; inhibitor 1 μM) [%] | remaining activity at 10 µM (MST2; inhibitor 10 μM) [%]
COc1ccc2c(c1)[nH]c1c(C)nccc12 [Harmine] | 100 | 102 | 25 | 19 | 91 | 81 | – | – | – | – | – | –
COc1ccc2c3c([nH]c2c1)C(C)=NCC3 [Harmaline] | – | – | – | – | – | – | 98 | 112 | 58 | 21 | 98 | 105
CC1=NCCc2c1[nH]c1cc(O)ccc21 [Harmalol] | – | – | – | – | – | – | 110 | 83 | 41 | 21 | 85 | 74
